Values of other authors, collected in patent US20110223312A1, “TRIGLYCERIDE-ENCAPSULATED PHYTOSTEROL MICROPARTICLES DISPERSED IN BEVERAGES” (priority 2009, published 2011).

Tested on: plasma cholesterol

SMILES	lowering of serum cholesterol (12-18 g per day in divided doses, males with atherosclerosis (Faquhar et al. 1956))	decrease of the plasma cholesterol level (9-18 grams of sitosterol per day, coarse powdered form, two earlier human studies)
CC[C@H](CC[C@@H](C)[C@H]1CC[C@H]2[C@@H]3CC=C4C[C@@H](O)CC[C@]4(C)[C@H]3CC[C@]12C)C(C)C [beta sitosterol]	15-20%	
CC[C@H](CC[C@@H](C)[C@H]1CC[C@H]2[C@@H]3CC=C4C[C@@H](O)CC[C@]4(C)[C@H]3CC[C@]12C)C(C)C [sitosterol]		approximately 15%
